Test results as given in ChEMBL document CHEMBL1914367, “Formation, recognition and bioactivities of a novel G-quadruplex in the STAT3 gene” (Bioorg Med Chem Lett, 2011).
The source made the active and inactive calls. The rule behind the calls is not given here.

Columns and labels:
Nucleic Acid [1] = assay: Binding affinity to STAT3 G-quadruplex in 3'-flanking region 5'-GGGCTGGGGATGGGGAGGGGG-3' assessed as intensity ratio of all complex ions to the sum of all G-quadruplex and complex ions at 20 uM by ESI mass spectroscopy relative to control; format: nucleic-acid assay
Nucleic Acid [2] = assay: Binding affinity to STAT3 G-quadruplex in rat cardiomyocytes assessed as down regulation of STAT3 gene expression at 10 uM after 48 hrs by RT-PCR analysis; format: cell-based
HEK293 [3] = assay: Down regulation of human STAT3 gene expression in human HEK293 cells cloned with MutQ vector harboring G-quadruplex GGG to GTG substitution mutation at 2 to 10 uM after 24 hrs by luciferase reporter gene assay; format: functional, cell-based
HEK293 [4] = assay: Down regulation of human STAT3 gene expression in human HEK293 cells cloned with DelQ vector harboring G-quadruplex G-rich sequence deletion at 2 to 10 uM after 24 hrs by luciferase reporter gene assay; format: functional, cell-based
Nucleic Acid [5] = assay: Binding affinity to STAT3 G-quadruplex in rat cardiomyocytes assessed as down regulation of STAT3 protein expression at 10 uM after 48 hrs by Western blot analysis; format: cell-based
Nucleic Acid [6] = assay: Binding affinity to STAT3 G-quadruplex in 3'-flanking region 5'-GGGCTGGGGATGGGGAGGGGG-3' assessed as melting temperature at 40 uM by UV-Vis spectrophotometry (reference value: 58 degC); format: nucleic-acid assay
Nucleic Acid [7] = assay: Binding affinity to human VEGF G-quadruplex 5'-GGGGCGGGCCGGGGGCGGGG-3' assessed as the intensity ratio of all complex ions to the sum of all G-quadruplex and complex ions at 20 uM by ESI mass spectroscopy relative to control; format: nucleic-acid assay
Nucleic Acid [8] = assay: Binding affinity to STAT3 G-quadruplex in 3'-flanking region 5'-GGGCTGGGGATGGGGAGGGGG-3' assessed as melting temperature at 10 uM by UV-Vis spectrophotometry (reference value: 58 degC); format: nucleic-acid assay
Nucleic Acid [9] = assay: Binding affinity to G-telomeric quadruplex 5'-GGGTTAGGGTTAGGGTTAGGG-3' assessed as the intensity ratio of all complex ions to the sum of all G-quadruplex and complex ions at 20 uM by ESI mass spectroscopy relative to control; format: nucleic-acid assay
Nucleic Acid [10] = assay: Down regulation of human STAT3 gene expression in human HEK293 cells cloned with FRQ vector harboring intact G-quadruplex at 2 to 10 uM after 24 hrs by luciferase reporter gene assay; format: cell-based
Nucleic Acid [11] = assay: Binding affinity to STAT3 G-quadruplex in 3'-flanking region 5'-GGGCTGGGGATGGGGAGGGGG-3' assessed as melting temperature at 20 uM by UV-Vis spectrophotometry (reference value: 58 degC); format: nucleic-acid assay

| Ratio (Nucleic Acid [1]) | Tm (Nucleic Acid [6]) [°C] | Ratio (Nucleic Acid [7]) | Tm (Nucleic Acid [8]) [°C] | Ratio (Nucleic Acid [9]) | Tm (Nucleic Acid [11]) [°C] | SMILES | Activity (Nucleic Acid [2]) | inhibition (HEK293 [3]) | inhibition (HEK293 [4]) | Activity (Nucleic Acid [5]) | inhibition (Nucleic Acid [10]) |
| --- | --- | --- | --- | --- | --- | --- | --- | --- | --- | --- | --- |
| 0.34 |  |  |  |  |  | COc1cc2c(cc1OC)-c1c(C)c3ccc(OC)c(OC)c3c[n+]1CC2 |  |  |  |  |  |
| 0.81 | 65 | 0.26 | 59 | 0.47 | 62 | COc1ccc2cc1Oc1ccc(cc1)C[C@H]1c3c(cc4c(c3Oc3cc5c(cc3OC)CCN(C)[C@@H]5C2)OCO4)CCN1C | Active | inactive | inactive | Active | Active |

| SMILES | Ratio (Nucleic Acid [1]) | Tm (Nucleic Acid [6]) [°C] | Ratio (Nucleic Acid [7]) | Tm (Nucleic Acid [8]) [°C] | Ratio (Nucleic Acid [9]) | Tm (Nucleic Acid [11]) [°C] | Activity (Nucleic Acid [2]) | inhibition (HEK293 [3]) | inhibition (HEK293 [4]) | Activity (Nucleic Acid [5]) | inhibition (Nucleic Acid [10]) |
| --- | --- | --- | --- | --- | --- | --- | --- | --- | --- | --- | --- |
| C[n+]1ccc(-c2c3nc(c(-c4cc[n+](C)cc4)c4ccc([nH]4)c(-c4cc[n+](C)cc4)c4ccc([nH]4)c(-c4cc[n+](C)cc4)c4nc2C=C4)C=C3)cc1 | 0.53 |  |  |  |  |  | Active | inactive | inactive | Active | Active |
